Measurements: patent US7238793B2 (Duke University, priority 2001, dated 2007)

System: 5X-Gal4-tata-Luc or TK-Gal4-Luc
Test: Autonomous repressor activity, Gal4 DBD fusions on Gal4-responsive reporter genes in HepG2 cells
Assay type: cell-based
Conditions: fused to Gal4 DBD, both reporter genes

NCoR: known transcriptional repressor, nuclear receptor co-repressor
effect on transcriptional activity of Gal4-responsive reporter genes: inhibit
